This is an account of results in patent US20140120060A1, “TREATMENT OF RHEUMATOID ARTHRITIS AND ASTHMA USING PI3 KINASE INHIBITORS” (INFINITY PHARMACEUTICALS, INC., priority 2012, published 2014).

The subject of the assay is B cell. The assay is described as follows: B cell proliferation. Type of assay: cell-based.

On to `COc1ccc(-c2nn(Cc3cc4cccc(C)c4c(=O)n3-c3ccccc3C)c3ncnc(N)c23)cc1OC` [Compound 44], for which the EC50 is less than 100 nM. The figure for `Cc1ccccc1-n1c(Cn2nc(C(F)F)c3c(N)ncnc32)cc2cccc(C)c2c1=O` [Compound 306] is less than 100 nM. For `Cc1ccccc1-n1c(Cn2nc(CC#N)c3c(N)ncnc32)cc2cccc(C)c2c1=O` [Compound 312], the EC50 was less than 1000 nM. In the case of `CC(Nc1ncnc2[nH]cnc12)c1cc2cccc(Cl)c2c(=O)n1-c1ccccc1` (centres unmarked) [Compound 237] it was less than 100 nM; in that of `Cc1cccnc1-n1c(Cn2nc(-c3cc(O)cc(F)c3)c3c(N)ncnc32)cc2ccccc2c1=O` [Compound 93], less than 100 nM. The figure for `COc1cc(-c2nn(Cc3cc4cccc(C)c4c(=O)n3-c3ccccc3F)c3ncnc(N)c23)ccc1Cl` [Compound 22] is less than 10000 nM. In the case of `Cc1cccc2cc(Cn3nc(-c4cc(O)cc(F)c4)c4c(N)ncnc43)n(C3CCCC3)c(=O)c12` [Compound 63] it was less than 100 nM; in that of `Cc1cccc2cc(Cn3nc(-c4ccc(O)c(F)c4)c4c(N)ncnc43)n(-c3ccccc3F)c(=O)c12` [Compound 29], less than 1000 nM; in that of `Cc1cccc2cc(C(C)Nc3ncnc4[nH]cnc34)n(C3CCOCC3)c(=O)c12` (centres unmarked) [Compound 234], less than 100 nM.

Consider `CC(C)n1c(Cn2nc(-c3cccc(O)c3)c3c(N)ncnc32)cc2cccc(F)c2c1=O` [Compound 133], for which the EC50 was less than 1000 nM. The figure for `Cc1cccc2cc(Cn3nc(-c4ccc(F)c(O)c4)c4c(N)ncnc43)n(C(C)C)c(=O)c12` [Compound 67] is less than 100 nM; for `Cc1cccc2cc(Cn3nc(-c4ccc5nc(N)oc5c4)c4c(N)ncnc43)n(-c3ccccc3)c(=O)c12` [Compound 235] it is less than 10000 nM. `CCC(Nc1ncnc2[nH]cnc12)c1cc2cccc(C)c2c(=O)n1C1CCC1` (centres unmarked) [Compound 212] registered an EC50 of less than 1000 nM. The figure for `Cc1cccc2cc(Cn3nc(-c4ccc(Cl)c(O)c4)c4c(N)ncnc43)n(-c3ccccc3F)c(=O)c12` [Compound 24] is less than 1000 nM; for `Cc1cccc2cc(Cn3nc(C#CCO)c4c(N)ncnc43)n(-c3ccccc3F)c(=O)c12` [Compound 8] it is less than 1000 nM; for `Cc1ccccc1-n1c(Cn2nc(C#C[C@@H](C)O)c3c(N)ncnc32)cc2ccccc2c1=O` [Compound 32] it is less than 1000 nM.

`Cc1ccccc1-n1c(Cn2nc(C#C[C@@H](C)O)c3c(N)ncnc32)cc2cccc(F)c2c1=O` [Compound 43] gave an EC50 of less than 10000 nM. In turn, `Cc1cccc2cc(C(C)Nc3ncnc4[nH]cnc34)n(-c3ccc(F)cc3)c(=O)c12` (centres unmarked) [Compound 213] yielded an EC50 of less than 100 nM. In the case of `Cc1cccc2cc(Cn3nc(-c4cc(O)cc(F)c4)c4c(N)ncnc43)n(-c3ccccc3C(C)C)c(=O)c12` [Compound 95] it was less than 100 nM; in that of `Cc1cccc2cc(Cn3nc(-c4cc(O)cc(F)c4)c4c(N)ncnc43)n(C3CCOCC3)c(=O)c12` [Compound 128], less than 100 nM. In the case of `Nc1ncnc2c1c(-c1cccc(O)c1)nn2Cc1cc2cccc(Cl)c2c(=O)n1C1CC1` [Compound 141] it was less than 100 nM; in that of `Cc1ccccc1-n1c(Cn2nc(C#C[C@H](C)O)c3c(N)ncnc32)cc2cccc(C)c2c1=O` [Compound 85], less than 1000 nM; in that of `Cc1ccccc1-n1c(Cn2nc(C(=O)NO)c3c(N)ncnc32)cc2cccc(C)c2c1=O` [Compound 300], less than 100 nM. The figure for `C[C@H](Nc1ncnc2[nH]cnc12)c1cc2cccc(Cl)c2c(=O)n1C1CC1` [Compound 270] is less than 100 nM; for `CC(C)n1c(Cn2nc(-c3cccc(O)c3)c3c(N)ncnc32)cc2cccc(Cl)c2c1=O` [Compound 137] it is less than 100 nM. `Cc1ccccc1-n1c(Cn2nc(-c3cnc4[nH]ccc4c3)c3c(N)ncnc32)cc2cccc(C)c2c1=O` [Compound 48]: the concentration for a half-maximal effect (EC50) was less than 100 nM.

`CC(=O)Nc1nc2ccc(-c3nn(Cc4cc5cccc(C)c5c(=O)n4C)c4ncnc(N)c34)cc2s1` [Compound 153]: the EC50 was less than 100 nM. `Cc1cccc2cc(Cn3nc(-c4ccc(O)c(Cl)c4)c4c(N)ncnc43)n(-c3ccccc3F)c(=O)c12` [Compound 26] registered an EC50 of less than 10000 nM. The figure for `CC(=O)Nc1nc2ccc(-c3nn(Cc4cc5cccc(F)c5c(=O)n4C(C)C)c4ncnc(N)c34)cc2s1` [Compound 158] is less than 100 nM; for `Cc1cccc2cc(Cn3nc(-c4cc(O)cc(F)c4)c4c(N)ncnc43)n(C3CCC3)c(=O)c12` [Compound 115] it is less than 100 nM; for `COc1ccccc1-n1c(Cn2nc(-c3cccc(O)c3)c3c(N)ncnc32)cc2cccc(C)c2c1=O` [Compound 74] it is less than 100 nM. Take `Cc1cccc2cc(Cn3nc(-c4cccc(O)c4)c4c(N)ncnc43)n(C3CC3)c(=O)c12` [Compound 102]: the EC50 is less than 100 nM. The figure for `Cc1cccc2cc(C(C)Nc3ncnc4[nH]cnc34)n(-c3ccccc3)c(=O)c12` (centres unmarked) [Compound 210] is less than 100 nM; for `Cc1cccc2cc(Cn3nc(C#C[C@@H](C)O)c4c(N)ncnc43)n(C(C)C)c(=O)c12` [Compound 61] it is less than 1000 nM; for `Cc1ccccc1-n1c(Cn2nc(C#CC3CC3)c3c(N)ncnc32)cc2cccc(C)c2c1=O` [Compound 14] it is less than 1000 nM. Compound `Cc1ccccc1-n1c(Cn2nc(Br)c3c(N)ncnc32)cc2cccc(C)c2c1=O` [Compound 19] came in with an EC50 of less than 1000 nM. `Nc1ncnc2c1c(-c1cc(O)cc(F)c1)nn2Cc1cc2cccc(Cl)c2c(=O)n1C1CC1` [Compound 142] had a concentration for a half-maximal effect (EC50) of less than 100 nM. The figure for `Cc1cccc2cc(Cn3nc(-c4cn[nH]c4)c4c(N)ncnc43)n(-c3ccccc3C(F)(F)F)c(=O)c12` [Compound 214] is less than 100 nM; for `Cc1cccc2cc([C@H](C)Nc3ncnc4[nH]cnc34)n(-c3ccccc3)c(=O)c12` [Compound 196] it is less than 100 nM. The figure for `Cc1cccc2cc(Cn3nc(I)c4c(N)ncnc43)n(-c3ccccc3Cl)c(=O)c12` [Compound 76] is less than 1000 nM; for `Cc1cccc2cc([C@@H](C)Nc3ncnc4[nH]cnc34)n(-c3ccccc3)c(=O)c12` [Compound 195] it is less than 1000 nM; for `Cc1cccnc1-n1c(Cn2nc(I)c3c(N)ncnc32)cc2cccc(C)c2c1=O` [Compound 15] it is less than 1000 nM. `Cc1ccccc1-n1c(Cn2nc(-c3cnn(CCO)c3)c3c(N)ncnc32)cc2cccc(C)c2c1=O` [Compound 163] had an EC50 of less than 1000 nM. `Cc1cccc2cc([C@H](C)Nc3ncnc4[nH]cc(F)c34)n(-c3ccccc3)c(=O)c12` [Compound 254] yielded an EC50 of less than 100 nM. In the case of `Cc1cccc2cc([C@H](C)Nc3nc(F)nc4[nH]cnc34)n(-c3ccccc3)c(=O)c12` [Compound 245] it was less than 100 nM. In the case of `Cc1cccc2cc([C@@H](C)Nc3ncnc4[nH]cnc34)n(C3CCC3)c(=O)c12` [Compound 197] it was less than 10000 nM.

Consider `CC(=O)Nc1nc2cc(-c3nn(Cc4cc5cccc(C)c5c(=O)n4-c4ccccc4)c4ncnc(N)c34)ccc2o1` [Compound 253], for which the EC50 is less than 100 nM. The figure for `Cc1cccc2cc(Cn3nc(C#C[C@@H](C)O)c4c(N)ncnc43)n(-c3ccccc3C(C)C)c(=O)c12` [Compound 83] is less than 100 nM; for `Cc1ccccc1-n1c(Cn2nc(-c3ccc4cc[nH]c4c3)c3c(N)ncnc32)cc2cccc(C)c2c1=O` [Compound 50] it is less than 1000 nM; for `Cc1cccnc1-n1c(Cn2nc(C#C[C@@H](C)O)c3c(N)ncnc32)cc2cccc(C)c2c1=O` [Compound 69] it is less than 1000 nM. For the compound `Cc1cccc2cc(Cn3nc(-c4cn[nH]c4)c4c(N)ncnc43)n(-c3ccccc3F)c(=O)c12` [Compound 161], the EC50 is less than 1000 nM. Take `COc1cccc(-c2nn(Cc3cc4cccc(C)c4c(=O)n3-c3ccccc3C)c3ncnc(N)c23)c1` [Compound 106]: the EC50 was less than 1000 nM.

`CC(=O)Nc1nc2ccc(-c3nn(Cc4cc5cccc(C)c5c(=O)n4-c4ccccc4)c4ncnc(N)c34)cc2s1` [Compound 177] gave an EC50 of less than 100 nM.

Compound `Cc1ccccc1-n1c(Cn2nc(C#N)c3c(N)ncnc32)cc2cccc(C)c2c1=O` [Compound 170] returned a concentration giving a half-maximal response (EC50) of less than 100 nM.

In the case of `Cc1cccc2cc(Cn3cnc4c(N)ncnc43)n(-c3ccccc3F)c(=O)c12` [Compound 1], the EC50 was less than 10000 nM.

The compound `Cc1ccccc1-n1c(C(C)Nc2ncnc3[nH]cnc23)cc2cccc(C)c2c1=O` (centres unmarked) [Compound 191] displayed an EC50 of less than 100 nM. In the case of `Cc1ccccc1-n1c(Cn2nc(-c3ccc(O)cc3)c3c(N)ncnc32)cc2cccc(C)c2c1=O` [Compound 36] it was less than 1000 nM. Take `Cc1cccc2cc(Cn3nc(-c4cccc(O)c4)c4c(N)ncnc43)n(-c3ccccc3)c(=O)c12` [Compound 146]: the EC50 is less than 100 nM. In the case of `CCC(Nc1ncnc2[nH]cnc12)c1cc2cccc(C)c2c(=O)n1C1CCN(C)CC1` (centres unmarked) [Compound 228] it was less than 100 nM; in that of `Cc1ccccc1-n1c(Cn2nc(-c3cccc(F)c3)c3c(N)ncnc32)cc2cccc(C)c2c1=O` [Compound 41], less than 1000 nM; in that of `CCc1ccccc1-n1c(Cn2nc(-c3cccc(O)c3)c3c(N)ncnc32)cc2cccc(C)c2c1=O` [Compound 88], less than 100 nM. In turn, `Cc1cccc2cc(Cn3nc(-c4cc(O)cc(F)c4)c4c(N)ncnc43)n(C(C)C)c(=O)c12` [Compound 66] gave an EC50 of less than 100 nM. The figure for `Cc1cccc2cc(C(C)Nc3ncnc4[nH]cnc34)n(-c3cc(F)cc(F)c3)c(=O)c12` (centres unmarked) [Compound 222] is less than 100 nM. In the case of `Cc1cccc2cc(Cn3nc(-c4ccc5oc(N)nc5c4)c4c(N)ncnc43)n(-c3ccccc3)c(=O)c12` [Compound 205] it was less than 100 nM; in that of `CC(=O)Nc1nc2ccc(-c3nn(Cc4cc5cccc(C)c5c(=O)n4C4CC4)c4ncnc(N)c34)cc2s1` [Compound 155], less than 100 nM; in that of `COc1ccc(-c2nn(Cc3cc4cccc(C)c4c(=O)n3-c3ccccc3C)c3ncnc(N)c23)cc1` [Compound 45], less than 1000 nM. `Cc1cccc2cc(Cn3nc(/C=C4/SC(=O)NC4=O)c4c(N)ncnc43)n(-c3ccccc3F)c(=O)c12` [Compound 171]: the EC50 was less than 100 nM. Compound `Nc1ncnc2c1c(-c1cc(O)cc(F)c1)nn2Cc1cc2cccc(F)c2c(=O)n1-c1ccccc1F` [Compound 144] returned an EC50 of less than 100 nM.
